Data: patent publication US9783537B2, “3-(4-ethylnylphenyl) pyridopyrimidinone compounds and process for preparation thereof useful as potential anticancer agents” (Council of Scientific & Industrial Research, priority 2013, dated 2017)
Read-outs that look alike come from different tables or passages of the source.

What was measured:
HL-60(TB) = experiment: SRB 48 h growth assay, Leukemia HL-60(TB); format: cell-based, human
MOLT-4 = experiment: SRB 48 h growth assay, Leukemia MOLT-4; format: cell-based, human; conditions: MOLT-4, Leukemia
RPMI-8226 = experiment: SRB 48 h growth assay, Leukemia RPMI-8226; format: cell-based, human; conditions: RPMI-8226, Leukemia
HOP-62 = experiment: SRB 48 h growth assay, Non-small Cell Lung HOP-62; format: cell-based, human; conditions: HOP-62, Non-small Cell Lung
NCI-H23 = experiment: SRB 48 h growth assay, Non-small Cell Lung NCI-H23; format: cell-based, human
NCI-H322M = experiment: SRB 48 h growth assay, Non-small Cell Lung NCI-H322M; format: cell-based, human
COLO 205 = experiment: SRB 48 h growth assay, Colon COLO 205; format: cell-based, human; conditions: COLO 205, Colon
HCT-116 = experiment: SRB 48 h growth assay, Colon HCT-116; format: cell-based, human; conditions: HCT-116, Colon
HT-29 = experiment: SRB 48 h growth assay, Colon HT-29; format: cell-based, human; conditions: HT-29, Colon
KM12 = experiment: SRB 48 h growth assay, Colon KM12; format: cell-based, human
SF-268 = experiment: SRB 48 h growth assay, CNS SF-268; format: cell-based, human; conditions: SF-268, CNS
LOX IMVI = experiment: SRB 48 h growth assay, Melanoma LOX IMVI; format: cell-based, human
M14 = experiment: SRB 48 h growth assay, Melanoma M14; format: cell-based, human
SK-MEL-2 = experiment: SRB 48 h growth assay, Melanoma SK-MEL-2; format: cell-based, human; conditions: SK-MEL-2, Melanoma
UACC-62 = experiment: SRB 48 h growth assay, Melanoma UACC-62; format: cell-based, human; conditions: UACC-62, Melanoma
OVCAR-3 = experiment: SRB 48 h growth assay, Ovarian OVCAR-3; format: cell-based, human; conditions: OVCAR-3, Ovarian
OVCAR-4 = experiment: SRB 48 h growth assay, Ovarian OVCAR-4; format: cell-based, human; conditions: OVCAR-4, Ovarian
OVCAR-5 = experiment: SRB 48 h growth assay, Ovarian OVCAR-5; format: cell-based, human; conditions: OVCAR-5, Ovarian
NCI/ADR-RES = experiment: SRB 48 h growth assay, Ovarian NCI/ADR-RES; format: cell-based, human
SK-OV-3 = experiment: SRB 48 h growth assay, Ovarian SK-OV-3; format: cell-based, human; conditions: SK-OV-3, Ovarian
786-0 = experiment: SRB 48 h growth assay, Renal 786-0; format: cell-based, human; conditions: 786-0, Renal
SN12C = experiment: SRB 48 h growth assay, Renal SN12C; format: cell-based, human
MCF7 = experiment: SRB 48 h growth assay, Breast MCF7; format: cell-based, human
MDA-MB-231/ATCC = experiment: SRB 48 h growth assay, Breast MDA-MB-231/ATCC; format: cell-based, human
[1] = in vitro anticancer activity, non-small cell lung panel; format: cell-based; conditions: Homo sapiens; nine non-small cell lung cancer cell lines, exposure at least 48 h; read-out: GI50, range over panel
[2] = tested on: seven colon cancer cell line (COLO 205, HCC-2998, HCT-116, HCT-15, HT29, KM12 and SW-620); experiment: in vitro anticancer activity, colon panel; format: cell-based; conditions: Homo sapiens; seven colon cancer cell lines, exposure at least 48 h; read-out: GI50, range over panel
[3] = tested on: two prostate cancer cell line (PC-3, DU-145); experiment: in vitro anticancer activity, prostate panel; format: cell-based; conditions: Homo sapiens; two prostate cancer cell lines, exposure at least 48 h; read-out: GI50, range over panel
[4] = Homo sapiens, read-out: Growth Inhibition GI50
[5] = Homo sapiens, read-out: Log10 GI50 (converted)
[6] = Homo sapiens, read-out: Log10 LC50 (converted)

C#Cc1ccc(-n2c(/C=C/c3ccc(C(F)(F)F)cc3)nc3ncccc3c2=O)cc1 [4c, (E)-3-(4-Ethynylphenyl)-2-(4-(trifluoromethyl)styryl)pyrido[2,3-d]pyrimidin-4(3H)-one]
Log10 TGI50 (HL-60(TB)): −5.22
GI50 (HL-60(TB); [4]): 2070 nM
GI50 (HL-60(TB); [5]): 2090 nM
CC50 (HL-60(TB); [6]): > 100000 nM
GI50 (MOLT-4; [4]): 3010 nM
GI50 (MOLT-4; [5]): 3020 nM
CC50 (MOLT-4; [6]): > 100000 nM
Log10 TGI50 (MOLT-4): −5.06
GI50 (RPMI-8226; [4]): 1390 nM
GI50 (RPMI-8226; [5]): 1380 nM
CC50 (RPMI-8226; [6]): > 100000 nM
Log10 TGI50 (RPMI-8226): −5.20
Log10 TGI50 (HOP-62): −5.29
GI50 (HOP-62; [4]): 2430 nM
GI50 (HOP-62; [5]): 2450 nM
CC50 (HOP-62; [6]): > 100000 nM
Log10 TGI50 (NCI-H23): −4.72
GI50 (NCI-H23; [4]): 3900 nM
GI50 (NCI-H23; [5]): 3890 nM
LC50 (NCI-H23; [6]): > 100000 nM
Log10 TGI50 (NCI-H322M): −5.15
GI50 (NCI-H322M; [4]): 2250 nM
GI50 (NCI-H322M; [5]): 2240 nM
CC50 (NCI-H322M; [6]): 27500 nM
Log10 TGI50 (COLO 205): −5.35
GI50 (COLO 205; [4]): 2230 nM
GI50 (COLO 205; [5]): 2240 nM
CC50 (COLO 205; [6]): 8910 nM
Log10 TGI50 (HCT-116): −5.52
GI50 (HCT-116; [4]): 1640 nM
GI50 (HCT-116; [5]): 1620 nM
CC50 (HCT-116; [6]): 5620 nM
Log10 TGI50 (HT-29): −5.40
GI50 (HT-29; [4]): 2030 nM
GI50 (HT-29; [5]): 2040 nM
CC50 (HT-29; [6]): 7760 nM
Log10 TGI50 (KM12): −5.46
GI50 (KM12; [4]): 1790 nM
GI50 (KM12; [5]): 1780 nM
CC50 (KM12; [6]): 6610 nM
GI50 (SF-268; [4]): 2270 nM
GI50 (SF-268; [5]): 2290 nM
CC50 (SF-268; [6]): 24500 nM
Log10 TGI50 (SF-268): −5.23
Log10 TGI50 (LOX IMVI): −5.37
GI50 (LOX IMVI; [4]): 1890 nM
GI50 (LOX IMVI; [5]): 1910 nM
CC50 (LOX IMVI; [6]): 9770 nM
Log10 TGI50 (M14): −5.37
GI50 (M14; [4]): 2070 nM
GI50 (M14; [5]): 2090 nM
CC50 (M14; [6]): 8710 nM
GI50 (SK-MEL-2; [4]): 2030 nM
GI50 (SK-MEL-2; [5]): 2040 nM
CC50 (SK-MEL-2; [6]): 8320 nM
Log10 TGI50 (SK-MEL-2): −5.39
GI50 (UACC-62; [4]): 1620 nM
GI50 (UACC-62; [5]): 1620 nM
CC50 (UACC-62; [6]): 7940 nM
Log10 TGI50 (UACC-62): −5.44
GI50 (OVCAR-3; [4]): 1670 nM
GI50 (OVCAR-3; [5]): 1660 nM
CC50 (OVCAR-3; [6]): 6030 nM
Log10 TGI50 (OVCAR-3): −5.50
GI50 (OVCAR-4; [4]): 1580 nM
GI50 (OVCAR-4; [5]): 479 nM
CC50 (OVCAR-4; [6]): 6920 nM
Log10 TGI50 (OVCAR-4): −5.48
GI50 (OVCAR-5; [4]): 1940 nM
GI50 (OVCAR-5; [5]): 1950 nM
CC50 (OVCAR-5; [6]): 6610 nM
Log10 TGI50 (OVCAR-5): −5.45
Log10 TGI50 (NCI/ADR-RES): −5.16
GI50 (NCI/ADR-RES; [4]): 2500 nM
GI50 (NCI/ADR-RES; [5]): 2510 nM
CC50 (NCI/ADR-RES; [6]): > 100000 nM
GI50 (SK-OV-3; [4]): 3610 nM
GI50 (SK-OV-3; [5]): 3630 nM
CC50 (SK-OV-3; [6]): 53700 nM
Log10 TGI50 (SK-OV-3): −4.87
Log10 TGI50 (786-0): −5.43
GI50 (786-0; [4]): 2060 nM
GI50 (786-0; [5]): 2040 nM
CC50 (786-0; [6]): 6610 nM
Log10 TGI50 (SN12C): −5.25
GI50 (SN12C; [4]): 2080 nM
GI50 (SN12C; [5]): 2090 nM
CC50 (SN12C; [6]): > 100000 nM
Log10 TGI50 (MCF7): −4.99
GI50 (MCF7; [4]): 2490 nM
GI50 (MCF7; [5]): 2510 nM
CC50 (MCF7; [6]): > 100000 nM
Log10 TGI50 (MDA-MB-231/ATCC): −5.26
GI50 (MDA-MB-231/ATCC; [4]): 2050 nM
GI50 (MDA-MB-231/ATCC; [5]): 2040 nM
CC50 (MDA-MB-231/ATCC; [6]): 60300 nM
GI50 [1]: 1630 to 7450 nM
GI50 [2]: 2060 to 3260 nM
GI50 [3]: 2350 to 7450 nM
